# Source: paper PMC5218480 (PLoS ONE, 2017)
# Tested on: MV-4-11 cells
# Assay: Gene expression microarray analysis (Affymetrix PrimeView) and GSEA
# Type: cell-based, human
# Design: RFU PODN (11730768_x_at) / Fold change /veh PODN (11730768_x_at) / RFU LINC00158 (11744669_a_at) / Fold change /veh LINC00158 (11744669_a_at) / RFU DUSP10 (11751237_a_at) / Fold change /veh DUSP10 (11751237_a_at) / RFU ID3 (11757404_x_at) / Fold change /veh ID3 (11757404_x_at) / RFU PLEKHG5 (11737974_s_at) / Fold change /veh PLEKHG5 (11737974_s_at) / RFU LRRC4B (11730491_at) / Fold change /veh LRRC4B (11730491_at) / RFU GIMAP4 (11747438_a_at) / Fold change /veh GIMAP4 (11747438_a_at) / RFU KRT8 (11758183_x_at) / Fold change /veh KRT8 (11758183_x_at) / RFU CNN1 (11734310_a_at) / Fold change /veh CNN1 (11734310_a_at) / RFU VPS37D (11726825_at) / Fold change /veh VPS37D (11726825_at) / RFU C10orf10 (11716522_x_at) / Fold change /veh C10orf10 (11716522_x_at) / RFU KIR2DL2 /// KIR2DL4 /// KIR2DL5A /// KIR2DL5B /// KIR2DS1 /// KIR2DS2 /// KIR2DS3 /// KIR2DS4 /// KIR3DL3 /// KIR3DL3 /// KIR3DS1 (11738374_at) / Fold change /veh KIR2DL2 /// KIR2DL4 /// KIR2DL5A /// KIR2DL5B /// KIR2DS1 /// KIR2DS2 /// KIR2DS3 /// KIR2DS4 /// KIR3DL3 /// KIR3DL3 /// KIR3DS1 (11738374_at) / RFU C1QL1 (11718748_at) / Fold change /veh C1QL1 (11718748_at) / RFU TMPRSS4 (11747572_a_at) / Fold change /veh TMPRSS4 (11747572_a_at) / RFU HAMP (11756126_x_at) / Fold change /veh HAMP (11756126_x_at) / RFU RNFT2 (11725882_a_at) / Fold change /veh RNFT2 (11725882_a_at) / RFU NR4A2 (11747474_a_at) / Fold change /veh NR4A2 (11747474_a_at) / RFU ABCC12 (11746883_a_at) / Fold change /veh ABCC12 (11746883_a_at) / RFU TMEM136 (11760407_x_at) / Fold change /veh TMEM136 (11760407_x_at) / RFU CLDN22 /// WWC2 (11732394_at) / Fold change /veh CLDN22 /// WWC2 (11732394_at) / RFU HLA-DPB1 (11760878_x_at) / Fold change /veh HLA-DPB1 (11760878_x_at) / RFU SPINT1 (11716480_a_at) / Fold change /veh SPINT1 (11716480_a_at) / RFU GAP43 (11754022_s_at) / Fold change /veh GAP43 (11754022_s_at) / RFU A4GNT (11735810_at) / Fold change /veh A4GNT (11735810_at) / RFU PRB3 (11715151_x_at) / Fold change /veh PRB3 (11715151_x_at) / RFU TUBB4B (11761932_at) / Fold change /veh TUBB4B (11761932_at) / RFU CAPN14 (11732068_a_at) / Fold change /veh CAPN14 (11732068_a_at) / RFU TMCC2 (11721928_a_at) / Fold change /veh TMCC2 (11721928_a_at) / RFU IRGQ (11745062_a_at) / Fold change /veh IRGQ (11745062_a_at) / RFU FAM174B (11720279_a_at) / Fold change /veh FAM174B (11720279_a_at) / RFU TMPRSS4 (11748680_a_at) / Fold change /veh TMPRSS4 (11748680_a_at) / RFU FAM212B (11763350_a_at) / Fold change /veh FAM212B (11763350_a_at) / RFU PLEKHG5 (11743358_a_at) / Fold change /veh PLEKHG5 (11743358_a_at) / RFU ZSCAN30 (11745921_a_at) / Fold change /veh ZSCAN30 (11745921_a_at) / RFU CMKLR1 (11741424_a_at) / Fold change /veh CMKLR1 (11741424_a_at) / RFU LOC101060620 /// MAPK8IP1 (11723275_at) / Fold change /veh LOC101060620 /// MAPK8IP1 (11723275_at) / RFU SPTSSB (11747773_x_at) / Fold change /veh SPTSSB (11747773_x_at) / RFU PRSS12 (11739890_at) / Fold change /veh PRSS12 (11739890_at) / RFU BIN1 (11741810_x_at) / Fold change /veh BIN1 (11741810_x_at) / RFU WNT11 (11732464_a_at) / Fold change /veh WNT11 (11732464_a_at) / RFU C10orf10 (11716521_a_at) / Fold change /veh C10orf10 (11716521_a_at) / RFU C5orf56 (11738089_at) / Fold change /veh C5orf56 (11738089_at) / RFU CYB561 (11721691_x_at) / Fold change /veh CYB561 (11721691_x_at) / RFU ANKRD19P (11752326_a_at) / Fold change /veh ANKRD19P (11752326_a_at) / RFU OR2T12 /// OR2T33 /// OR2T8 (11738714_s_at) / Fold change /veh OR2T12 /// OR2T33 /// OR2T8 (11738714_s_at) / RFU VCAN (11748164_a_at) / Fold change /veh VCAN (11748164_a_at) / RFU JSRP1 (11732532_at) / Fold change /veh JSRP1 (11732532_at) / RFU KRTAP10-11 (11738290_x_at) / Fold change /veh KRTAP10-11 (11738290_x_at) / RFU MYO3A (11730013_a_at) / Fold change /veh MYO3A (11730013_a_at) / RFU EBF3 (11725865_a_at) / Fold change /veh EBF3 (11725865_a_at) / RFU CAMK2N1 (11719241_x_at) / Fold change /veh CAMK2N1 (11719241_x_at) / RFU C5orf56 (11738088_a_at) / Fold change /veh C5orf56 (11738088_a_at) / RFU OLFML3 (11715873_a_at) / Fold change /veh OLFML3 (11715873_a_at) / RFU LOC100653217 /// NTM (11731650_a_at) / Fold change /veh LOC100653217 /// NTM (11731650_a_at) / RFU MAPK11 (11762145_a_at) / Fold change /veh MAPK11 (11762145_a_at) / RFU FIZ1 (11724087_x_at) / Fold change /veh FIZ1 (11724087_x_at) / RFU OASL (11726364_x_at) / Fold change /veh OASL (11726364_x_at) / RFU SOX15 (11748057_x_at) / Fold change /veh SOX15 (11748057_x_at) / RFU CD79A (11719716_a_at) / Fold change /veh CD79A (11719716_a_at) / RFU HIST1H1D (11736915_at) / Fold change /veh HIST1H1D (11736915_at) / RFU CASKIN2 (11723855_a_at) / Fold change /veh CASKIN2 (11723855_a_at) / RFU LOC730098 (11760151_x_at) / Fold change /veh LOC730098 (11760151_x_at) / RFU OR4N2 (11742367_at) / Fold change /veh OR4N2 (11742367_at) / RFU PRRT2 (11749266_a_at) / Fold change /veh PRRT2 (11749266_a_at) / RFU SNX32 (11753110_a_at) / Fold change /veh SNX32 (11753110_a_at) / RFU CDHR5 (11726645_a_at) / Fold change /veh CDHR5 (11726645_a_at) / RFU RCAN1 (11760418_a_at) / Fold change /veh RCAN1 (11760418_a_at) / RFU FAM167A (11723789_a_at) / Fold change /veh FAM167A (11723789_a_at) / RFU FAM26E (11764081_at) / Fold change /veh FAM26E (11764081_at) / RFU ISYNA1 (11749810_s_at) / Fold change /veh ISYNA1 (11749810_s_at) / RFU ACY1 (11761880_at) / Fold change /veh ACY1 (11761880_at) / RFU 11764098_at / Fold change /veh 11764098_at / RFU SAMD14 (11745864_x_at) / Fold change /veh SAMD14 (11745864_x_at) / RFU NPB (11741838_a_at) / Fold change /veh NPB (11741838_a_at) / RFU TMPRSS6 (11731388_a_at) / Fold change /veh TMPRSS6 (11731388_a_at) / RFU KRTAP10-2 (11738614_at) / Fold change /veh KRTAP10-2 (11738614_at) / RFU ARHGAP8 /// PRR5-ARHGAP8 (11727945_x_at) / Fold change /veh ARHGAP8 /// PRR5-ARHGAP8 (11727945_x_at) / RFU KRTAP5-7 /// NADSYN1 (11734609_at) / Fold change /veh KRTAP5-7 /// NADSYN1 (11734609_at) / RFU RASL12 (11751679_a_at) / Fold change /veh RASL12 (11751679_a_at) / RFU CDKN2B (11736163_a_at) / Fold change /veh CDKN2B (11736163_a_at) / RFU PRF1 (11729649_at) / Fold change /veh PRF1 (11729649_at) / RFU, ZNF638 /// ZNF638-IT1 / Fold change vs veh, ZNF638 /// ZNF638-IT1 / RFU, PANK3 / Fold change vs veh, PANK3 / RFU, SH3YL1 / Fold change vs veh, SH3YL1 / RFU, ZEB2 / Fold change vs veh, ZEB2 / RFU, NRIP1 / Fold change vs veh, NRIP1 / RFU, PTTG1IP / Fold change vs veh, PTTG1IP / RFU, CAPN2 / Fold change vs veh, CAPN2 / RFU, MED14 / Fold change vs veh, MED14 / RFU, SNORA58 / Fold change vs veh, SNORA58 / RFU, C1orf63 / Fold change vs veh, C1orf63 / RFU, LRRFIP1 / Fold change vs veh, LRRFIP1 / RFU, NDUFAF7 / Fold change vs veh, NDUFAF7 / RFU, SLC12A2 / Fold change vs veh, SLC12A2 / RFU, IBTK / Fold change vs veh, IBTK / RFU, ESF1 / Fold change vs veh, ESF1 / Fold change vs veh, TMEM50B / RFU, TAOK1 / Fold change vs veh, TAOK1 / RFU, ACBD3 / Fold change vs veh, ACBD3 / RFU, TMA16 / Fold change vs veh, TMA16 / RFU, RWDD3 / Fold change vs veh, RWDD3 / RFU, BCAT1 / Fold change vs veh, BCAT1 / RFU, EDEM3 / Fold change vs veh, EDEM3 / RFU, TMEM33 / Fold change vs veh, TMEM33 / RFU, WDR75 / Fold change vs veh, WDR75 / RFU, AHCTF1 / Fold change vs veh, AHCTF1 / RFU, TFRC / Fold change vs veh, TFRC / RFU, ZDHHC17 / Fold change vs veh, ZDHHC17 / RFU, NOM1 / Fold change vs veh, NOM1 / RFU, ARL8B / Fold change vs veh, ARL8B / RFU, ZBTB11 / Fold change vs veh, ZBTB11 / RFU, TAMM41 / Fold change vs veh, TAMM41 / RFU, KIAA1704 /// LOC100996395 / Fold change vs veh, KIAA1704 /// LOC100996395 / RFU, ING1 / Fold change vs veh, ING1 / RFU, TRMT61B / Fold change vs veh, TRMT61B / RFU, FUBP3 / Fold change vs veh, FUBP3 / RFU, TP53 / Fold change vs veh, TP53 / RFU, TNKS2 / Fold change vs veh, TNKS2 / RFU, ZFP14 / Fold change vs veh, ZFP14 / RFU, ACTR2 / Fold change vs veh, ACTR2 / RFU, PPP3R1 / Fold change vs veh, PPP3R1 / RFU, PIK3R1 / Fold change vs veh, PIK3R1 / RFU, HNRNPA1 / Fold change vs veh, HNRNPA1 / RFU, RNF170 / Fold change vs veh, RNF170 / RFU, ZNF28 / Fold change vs veh, ZNF28 / RFU, RNGTT / Fold change vs veh, RNGTT / RFU, OGT / Fold change vs veh, OGT / RFU, BRD1 / Fold change vs veh, BRD1 / RFU, MARS / Fold change vs veh, MARS / RFU, ZNF655 / Fold change vs veh, ZNF655 / RFU, FAHD1 / Fold change vs veh, FAHD1 / RFU, BDP1 / Fold change vs veh, BDP1 / RFU, LRRCC1 / Fold change vs veh, LRRCC1 / RFU, ARID1A / Fold change vs veh, ARID1A / RFU, ZNF146 / Fold change vs veh, ZNF146 / RFU, ZNF330 / Fold change vs veh, ZNF330 / RFU, GPN3 / Fold change vs veh, GPN3 / RFU, C9orf123 / Fold change vs veh, C9orf123 / RFU, N4BP2L2 / Fold change vs veh, N4BP2L2 / RFU, ARFIP1 / Fold change vs veh, ARFIP1 / RFU, FAM179B / Fold change vs veh, FAM179B / RFU, BCL10 / Fold change vs veh, BCL10 / RFU, UHRF1BP1L / Fold change vs veh, UHRF1BP1L / RFU, BET1 / Fold change vs veh, BET1 / RFU, CNOT2 / Fold change vs veh, CNOT2 / RFU, ZNF268 / Fold change vs veh, ZNF268 / Fold change vs veh, ZNF507 / RFU, DGCR2 / Fold change vs veh, DGCR2 / RFU, WDSUB1 / Fold change vs veh, WDSUB1 / Fold change vs veh, HSP90B1 /// MIR3652 / RFU, ADSS / Fold change vs veh, ADSS / RFU, GK / Fold change vs veh, GK / RFU, ZNF148 / Fold change vs veh, ZNF148 / RFU, TAF9 / Fold change vs veh, TAF9 / RFU, SLC1A5 / Fold change vs veh, SLC1A5 / RFU, SLMO2 / Fold change vs veh, SLMO2 / RFU, ABCC4 / Fold change vs veh, ABCC4 / RFU, LOC101060439 /// RAP1B / Fold change vs veh, LOC101060439 /// RAP1B / RFU, RFX7 / Fold change vs veh, RFX7 / RFU, GTPBP10 / Fold change vs veh, GTPBP10 / RFU, CNEP1R1 / Fold change vs veh, CNEP1R1 / RFU, BIVM-ERCC5 /// ERCC5 / Fold change vs veh, BIVM-ERCC5 /// ERCC5 / RFU, ILF3 / Fold change vs veh, ILF3 / RFU 11762660_at / Fold change /veh 11762660_at / RFU VCAN (11757783_s_at) / Fold change /veh VCAN (11757783_s_at) / RFU DDX43 (11728927_at) / Fold change /veh DDX43 (11728927_at) / RFU KRT8 (11758188_x_at) / Fold change /veh KRT8 (11758188_x_at) / RFU NKD1 (11759106_at) / Fold change /veh NKD1 (11759106_at) / RFU SRD5A1 (11742802_a_at) / Fold change /veh SRD5A1 (11742802_a_at) / RFU TPSAB1 /// TPSB2 (11721975_s_at) / Fold change /veh TPSAB1 /// TPSB2 (11721975_s_at) / RFU GSTM3 (11746129_a_at) / Fold change /veh GSTM3 (11746129_a_at) / RFU IL23R (11737362_x_at) / Fold change /veh IL23R (11737362_x_at) / RFU TMEM51 (11727254_a_at) / Fold change /veh TMEM51 (11727254_a_at) / RFU PIWIL2 (11732686_x_at) / Fold change /veh PIWIL2 (11732686_x_at) / RFU ORM1 (11744905_x_at) / Fold change /veh ORM1 (11744905_x_at) / RFU CCDC152 (11743942_at) / Fold change /veh CCDC152 (11743942_at) / RFU ECM1 (11717891_a_at) / Fold change /veh ECM1 (11717891_a_at) / RFU IL23R (11748794_a_at) / Fold change /veh IL23R (11748794_a_at) / RFU TNFAIP8L3 (11732012_x_at) / Fold change /veh TNFAIP8L3 (11732012_x_at) / RFU MBOAT4 (11741988_at) / Fold change /veh MBOAT4 (11741988_at) / RFU 11764193_at / Fold change /veh 11764193_at / RFU TMEM53 (11763286_at) / Fold change /veh TMEM53 (11763286_at) / RFU MAGEB2 (11727129_at) / Fold change /veh MAGEB2 (11727129_at) / RFU TMEM200A (11744735_a_at) / Fold change /veh TMEM200A (11744735_a_at) / RFU CCDC152 (11751479_a_at) / Fold change /veh CCDC152 (11751479_a_at) / RFU FAM211A (11726209_a_at) / Fold change /veh FAM211A (11726209_a_at) / RFU RGS16 (11746705_a_at) / Fold change /veh RGS16 (11746705_a_at) / RFU VCAN (11755009_s_at) / Fold change /veh VCAN (11755009_s_at) / RFU RHOB (11743442_s_at) / Fold change /veh RHOB (11743442_s_at) / RFU RGS16 (11720943_a_at) / Fold change /veh RGS16 (11720943_a_at) / RFU RGS16 (11720944_at) / Fold change /veh RGS16 (11720944_at) / RFU, VPS4B / Fold change vs veh, VPS4B / RFU, CREB1 / Fold change vs veh, CREB1 / RFU, DNAJC13 / Fold change vs veh, DNAJC13 / RFU, GNAQ / Fold change vs veh, GNAQ / RFU, CDK5R1 / Fold change vs veh, CDK5R1 / RFU, ZRANB3 / Fold change vs veh, ZRANB3 / RFU, CUL4A / Fold change vs veh, CUL4A / RFU, CCNY / Fold change vs veh, CCNY / RFU, UFL1 / Fold change vs veh, UFL1 / RFU, COG3 / Fold change vs veh, COG3 / RFU, DIAPH2 / Fold change vs veh, DIAPH2 / RFU, SKA2 / Fold change vs veh, SKA2 / RFU, AFF3 / Fold change vs veh, AFF3 / RFU, LMF1 / Fold change vs veh, LMF1 / RFU, IPO11 / Fold change vs veh, IPO11 / RFU, DFFB / Fold change vs veh, DFFB / RFU, FOXP1 / Fold change vs veh, FOXP1 / RFU, CARD8 / Fold change vs veh, CARD8 / RFU, STRN3 / Fold change vs veh, STRN3 / RFU, ADK / Fold change vs veh, ADK / RFU, RASSF2 / Fold change vs veh, RASSF2 / RFU, WIPF1 / Fold change vs veh, WIPF1 / RFU, LARP1B / Fold change vs veh, LARP1B / RFU, RASA1 / Fold change vs veh, RASA1 / RFU, RB1 / Fold change vs veh, RB1 / RFU, PPFIA1 / Fold change vs veh, PPFIA1 / RFU, MAT2A / Fold change vs veh, MAT2A / RFU, CCT5 / Fold change vs veh, CCT5 / RFU, WDR92 / Fold change vs veh, WDR92 / RFU, CUX1 / Fold change vs veh, CUX1 / RFU, TTC7A / Fold change vs veh, TTC7A / RFU, TMEM135 / Fold change vs veh, TMEM135 / RFU, DEPTOR / Fold change vs veh, DEPTOR / RFU, CPM / Fold change vs veh, CPM / RFU, DNAJB6 / Fold change vs veh, DNAJB6 / RFU, CACNA2D3 / Fold change vs veh, CACNA2D3 / RFU, DTX4 / Fold change vs veh, DTX4 / RFU, TFCP2 / Fold change vs veh, TFCP2 / RFU, GMCL1 /// GMCL1P1 / Fold change vs veh, GMCL1 /// GMCL1P1 / RFU, AEBP2 / Fold change vs veh, AEBP2 / RFU, SNHG1 /// SNORD22 /// SNORD25 /// SNORD26 /// SNORD27 /// SNORD28 /// SNORD29 /// SNORD31 / Fold change vs veh, SNHG1 /// SNORD22 /// SNORD25 /// SNORD26 /// SNORD27 /// SNORD28 /// SNORD29 /// SNORD31 / Fold change (Aza/veh), C12orf56 (ProbeSet 11735607_a_at) / Fold change (ACY-1035/veh), C12orf56 (ProbeSet 11735607_a_at) / Fold change (Aza/veh), FGFR1OP (ProbeSet 11751329_s_at) / Fold change (ACY-1035/veh), FGFR1OP (ProbeSet 11751329_s_at) / Fold change (Aza/veh), VPS36 (ProbeSet 11739960_a_at) / Fold change (ACY-1035/veh), VPS36 (ProbeSet 11739960_a_at) / RFU SYPL1 (11715823_x_at) / Fold change /veh SYPL1 (11715823_x_at) / RFU IGFBP7 (11715501_s_at) / Fold change /veh IGFBP7 (11715501_s_at) / RFU REEP3 (11722064_at) / Fold change /veh REEP3 (11722064_at) / RFU IGLL1 (11728026_x_at) / Fold change /veh IGLL1 (11728026_x_at): dose or concentration left out as unconfirmed
# Details: ProbeSet 11718701_a_at; LIST B
compound,measurement,value
Nc1ncn([C@@H]2O[C@H](CO)[C@@H](O)[C@H]2O)c(=O)n1 [azacitidine],"Fold change vs veh, ARFIP1",1.05
